Among the data in ChEMBL document CHEMBL4028816, “Discovery of a potent inhibitor of MELK that inhibits expression of the anti-apoptotic protein Mcl-1 and TNBC cell growth” (Bioorg Med Chem, 2017) are Ki, IC50 and Activity values, retold here.

Assay [1] has as its target AMP-activated protein kinase, AMPK. Briefly: Inhibition of AMPK (unknown origin) using SAMS peptide as substrate measured after 30 mins in presence of [gamma32P]ATP by liquid scintillation counting method. More on the design: species or system Homo sapiens.
In assay [2] the target is Mitogen-activated protein kinase 1 (Homo sapiens, UniProt P28482). Briefly: Inhibition of ERK2 (unknown origin) using Ets-1 as substrate measured after 30 mins in presence of [gamma32P]ATP by liquid scintillation counting method.
Mitogen-activated protein kinase 1, sequence (P28482 whole entry, the tested form may be a part): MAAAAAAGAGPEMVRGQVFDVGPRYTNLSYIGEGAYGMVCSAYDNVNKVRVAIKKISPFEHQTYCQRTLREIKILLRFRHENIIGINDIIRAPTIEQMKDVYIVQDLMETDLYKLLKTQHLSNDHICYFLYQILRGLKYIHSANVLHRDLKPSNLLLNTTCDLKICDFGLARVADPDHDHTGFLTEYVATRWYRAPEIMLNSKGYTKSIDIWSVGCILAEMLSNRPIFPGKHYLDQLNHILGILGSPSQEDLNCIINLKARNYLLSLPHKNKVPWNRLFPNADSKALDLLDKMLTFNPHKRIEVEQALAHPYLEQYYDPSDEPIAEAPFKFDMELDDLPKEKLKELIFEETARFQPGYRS
The target in assay [3] is Maternal embryonic leucine zipper kinase (Homo sapiens, UniProt Q14680). As to the kind of experiment: Inhibition of His6-tagged MELK catalytic domain (1 to 340 residues) (unknown origin) expressed in Escherichia coli BL21 (DE3) cells using Bcl-GL as substrate measured after 30 mins in presence of [gamma32P]ATP by liquid scintillation counting method.
Maternal embryonic leucine zipper kinase, sequence (Q14680 whole entry, the tested form may be a part): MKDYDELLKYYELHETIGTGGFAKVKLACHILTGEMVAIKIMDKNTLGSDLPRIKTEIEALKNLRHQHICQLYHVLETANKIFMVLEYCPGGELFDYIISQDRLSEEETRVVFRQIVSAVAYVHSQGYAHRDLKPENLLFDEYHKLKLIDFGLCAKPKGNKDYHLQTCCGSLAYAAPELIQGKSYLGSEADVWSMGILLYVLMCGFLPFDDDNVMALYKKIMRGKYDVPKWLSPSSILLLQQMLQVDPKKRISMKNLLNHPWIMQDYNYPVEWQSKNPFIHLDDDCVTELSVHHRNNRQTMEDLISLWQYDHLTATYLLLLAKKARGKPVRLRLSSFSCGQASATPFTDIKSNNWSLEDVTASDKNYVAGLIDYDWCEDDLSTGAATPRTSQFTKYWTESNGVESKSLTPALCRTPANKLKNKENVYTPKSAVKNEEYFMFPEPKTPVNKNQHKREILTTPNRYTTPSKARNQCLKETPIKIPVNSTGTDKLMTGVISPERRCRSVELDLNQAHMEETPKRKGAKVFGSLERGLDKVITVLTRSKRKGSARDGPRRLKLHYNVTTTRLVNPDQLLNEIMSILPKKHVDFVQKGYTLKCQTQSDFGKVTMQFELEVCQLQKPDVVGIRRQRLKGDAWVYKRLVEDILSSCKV
The test system of a further assay is HCC70. As to the kind of experiment: Antiproliferative activity against human HCC70 cells up to 20 uM after 72 hrs by CellTitre-Blue assay. The assay is classed as functional, cell-based.
The next assay relates to SUM-159-PT. Briefly: Antiproliferative activity against human SUM159 cells up to 20 uM after 72 hrs by CellTitre-Blue assay. Type of assay: functional, cell-based.
The subject of a further assay is MCF-10A. As to the kind of experiment: Antiproliferative activity against human MCF10A cells at 10 uM after 72 hrs by CellTitre-Blue assay. The assay is classed as functional, cell-based.
The next assay has as its system BT-549. As to the kind of experiment: Antiproliferative activity against human BT549 cells up to 20 uM after 72 hrs by CellTitre-Blue assay. Type of assay: functional, cell-based.

Activity calls are given as the source filed them. The calls are words filed in the database; no cut-off is given here.

As for `CN1CCN(CC(=O)N(C)c2ccc(N/C(=C3\C(=O)Nc4ccc(C(=O)O)cc43)c3ccccc3)cc2)CC1`, the Ki in assay [1] turned out to be 4.9 nM; in assay [2] it was 19000 nM.
Take `CN1CCN(CC(=O)N(C)c2ccc(N/C(=C3\C(=O)Nc4cc(C(=O)NCCCN)ccc43)c3ccccc3)cc2)CC1`: in assay [3], the IC50 is more than 5000 nM and the Ki was more than 650 nM.
On to `COC(=O)c1ccc2c(c1)/C(=C(/Nc1ccc(N(C)C(=O)CN3CCN(C)CC3)cc1)c1ccccc1)C(=O)N2`, for which the result in the assay with HCC70, in the assay with SUM-159-PT and with BT-549 was Active. In addition, the Ki in assay [1] was found to be 9.2 nM; in assay [2], 3000 nM. The result in the assay with MCF-10A was inactive.
As for `CN1CCN(CC(=O)N(C)c2ccc(N/C(=C3\C(=O)Nc4ccccc43)c3ccccc3)cc2)CC1`, the Ki in assay [1] was 4.2 nM.

Broadly, the Ki is the equilibrium dissociation constant of an inhibitor or competing ligand from its target. For orientation: IC50 means the concentration that gives 50% inhibition.
